In paper PMC6199744, “Development of Chemical Proteomics for the Folateome and Analysis of the Kinetoplastid Folateome” (ACS Infectious Diseases, 2018):
Where two headings read alike, the source gives them in different places.

Legend:
Type in all cases: binding
[1] = target: T1, HeLa cell extract proteins (Homo sapiens, UniProt P06744)
T1 construct: endogenous in cells; host or cells: HeLa cell extract

[2] = target: T2, HeLa cell extract proteins (Homo sapiens, UniProt P25205)
T2 construct: endogenous in cells; host or cells: HeLa cell extract
T2 sequence (P25205 1-808): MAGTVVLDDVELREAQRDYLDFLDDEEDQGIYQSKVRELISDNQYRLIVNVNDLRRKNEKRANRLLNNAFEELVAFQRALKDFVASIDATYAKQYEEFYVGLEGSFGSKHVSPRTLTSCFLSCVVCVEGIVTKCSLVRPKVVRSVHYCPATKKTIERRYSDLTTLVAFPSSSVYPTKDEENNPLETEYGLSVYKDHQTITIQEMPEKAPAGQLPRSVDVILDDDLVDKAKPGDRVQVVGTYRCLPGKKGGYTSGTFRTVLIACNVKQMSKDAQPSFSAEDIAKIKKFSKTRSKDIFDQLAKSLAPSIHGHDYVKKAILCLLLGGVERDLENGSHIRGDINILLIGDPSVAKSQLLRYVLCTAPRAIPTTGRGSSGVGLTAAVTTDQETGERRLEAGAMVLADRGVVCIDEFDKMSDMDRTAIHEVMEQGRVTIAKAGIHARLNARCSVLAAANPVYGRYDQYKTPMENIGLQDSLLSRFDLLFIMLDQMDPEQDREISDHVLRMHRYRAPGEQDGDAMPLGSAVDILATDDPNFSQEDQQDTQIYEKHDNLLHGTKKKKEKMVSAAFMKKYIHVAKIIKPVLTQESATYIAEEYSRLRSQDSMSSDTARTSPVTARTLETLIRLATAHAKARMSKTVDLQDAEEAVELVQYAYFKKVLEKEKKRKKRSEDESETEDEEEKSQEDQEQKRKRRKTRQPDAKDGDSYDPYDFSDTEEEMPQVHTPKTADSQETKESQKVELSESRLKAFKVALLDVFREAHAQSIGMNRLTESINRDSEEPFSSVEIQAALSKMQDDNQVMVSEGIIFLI

[3] = target: T3, HeLa cell extract proteins (Homo sapiens, UniProt P32929)
T3 construct: endogenous in cells; host or cells: HeLa cell extract
T3 sequence (P32929 whole entry): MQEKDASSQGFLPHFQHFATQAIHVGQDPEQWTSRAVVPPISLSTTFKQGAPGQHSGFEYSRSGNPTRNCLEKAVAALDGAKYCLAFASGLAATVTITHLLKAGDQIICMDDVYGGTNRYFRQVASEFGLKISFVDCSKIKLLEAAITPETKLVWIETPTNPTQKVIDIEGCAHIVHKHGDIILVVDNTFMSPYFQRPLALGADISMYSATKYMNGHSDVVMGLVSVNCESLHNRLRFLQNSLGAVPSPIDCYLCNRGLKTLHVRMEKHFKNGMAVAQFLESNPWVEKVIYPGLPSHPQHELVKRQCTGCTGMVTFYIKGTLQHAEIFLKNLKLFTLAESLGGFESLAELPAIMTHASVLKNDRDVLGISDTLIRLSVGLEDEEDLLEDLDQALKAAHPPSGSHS

[4] = target: T4, HeLa cell extract proteins (Homo sapiens, UniProt P36639)
T4 construct: endogenous in cells; host or cells: HeLa cell extract

[5] = target: T5, HeLa cell extract proteins (Homo sapiens, UniProt P40763)
T5 construct: endogenous in cells; host or cells: HeLa cell extract
T5 sequence (P40763 whole entry): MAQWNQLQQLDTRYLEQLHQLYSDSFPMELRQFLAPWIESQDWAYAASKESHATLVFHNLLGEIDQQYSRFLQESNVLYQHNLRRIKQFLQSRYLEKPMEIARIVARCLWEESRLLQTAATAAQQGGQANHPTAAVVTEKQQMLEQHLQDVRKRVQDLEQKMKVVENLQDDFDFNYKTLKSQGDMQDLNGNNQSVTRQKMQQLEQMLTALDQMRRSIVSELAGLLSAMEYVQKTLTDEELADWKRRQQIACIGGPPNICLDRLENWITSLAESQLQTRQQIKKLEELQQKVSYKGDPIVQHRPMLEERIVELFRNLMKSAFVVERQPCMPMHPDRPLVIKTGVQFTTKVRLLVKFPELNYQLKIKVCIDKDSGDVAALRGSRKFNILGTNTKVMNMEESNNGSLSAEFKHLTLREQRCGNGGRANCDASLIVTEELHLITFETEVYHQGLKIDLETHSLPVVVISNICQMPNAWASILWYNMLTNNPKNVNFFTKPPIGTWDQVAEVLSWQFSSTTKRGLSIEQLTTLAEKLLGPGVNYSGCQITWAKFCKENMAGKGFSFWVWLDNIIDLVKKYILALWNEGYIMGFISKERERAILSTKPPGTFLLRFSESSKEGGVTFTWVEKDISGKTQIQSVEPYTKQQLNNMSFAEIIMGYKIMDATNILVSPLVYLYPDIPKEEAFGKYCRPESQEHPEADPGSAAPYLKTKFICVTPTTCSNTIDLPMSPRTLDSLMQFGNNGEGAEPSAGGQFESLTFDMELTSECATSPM

[6] = target: T6, HeLa cell extract proteins (Homo sapiens, UniProt Q14697)
T6 construct: endogenous in cells; host or cells: HeLa cell extract
T6 sequence (Q14697 29-944): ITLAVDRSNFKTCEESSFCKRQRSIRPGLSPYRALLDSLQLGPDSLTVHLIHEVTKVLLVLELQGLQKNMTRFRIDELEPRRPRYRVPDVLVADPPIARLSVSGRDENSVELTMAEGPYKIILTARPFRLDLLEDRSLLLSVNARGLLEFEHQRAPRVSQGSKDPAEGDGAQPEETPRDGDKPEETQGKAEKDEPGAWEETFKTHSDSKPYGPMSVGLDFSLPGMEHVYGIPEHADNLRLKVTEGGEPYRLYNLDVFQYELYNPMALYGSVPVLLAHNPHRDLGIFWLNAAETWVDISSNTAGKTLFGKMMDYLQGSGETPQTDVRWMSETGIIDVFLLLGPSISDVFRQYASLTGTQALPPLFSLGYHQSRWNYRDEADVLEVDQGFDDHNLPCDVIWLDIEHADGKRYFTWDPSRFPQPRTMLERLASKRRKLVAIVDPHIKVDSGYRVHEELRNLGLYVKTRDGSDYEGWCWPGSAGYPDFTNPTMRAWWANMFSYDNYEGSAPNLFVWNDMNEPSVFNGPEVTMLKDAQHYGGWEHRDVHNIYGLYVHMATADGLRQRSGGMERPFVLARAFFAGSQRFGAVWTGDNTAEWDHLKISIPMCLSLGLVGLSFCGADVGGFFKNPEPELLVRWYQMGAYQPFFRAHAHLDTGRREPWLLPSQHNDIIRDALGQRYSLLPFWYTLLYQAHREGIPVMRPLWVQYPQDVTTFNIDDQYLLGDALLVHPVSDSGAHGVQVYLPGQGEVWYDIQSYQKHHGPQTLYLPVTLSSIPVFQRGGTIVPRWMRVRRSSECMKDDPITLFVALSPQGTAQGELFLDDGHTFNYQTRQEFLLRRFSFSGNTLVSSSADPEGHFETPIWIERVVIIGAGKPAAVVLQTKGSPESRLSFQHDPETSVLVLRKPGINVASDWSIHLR

[7] = target: T7, HeLa cell extract proteins (Homo sapiens, UniProt Q86X55)
T7 construct: endogenous in cells; host or cells: HeLa cell extract
T7 sequence (Q86X55 1-608): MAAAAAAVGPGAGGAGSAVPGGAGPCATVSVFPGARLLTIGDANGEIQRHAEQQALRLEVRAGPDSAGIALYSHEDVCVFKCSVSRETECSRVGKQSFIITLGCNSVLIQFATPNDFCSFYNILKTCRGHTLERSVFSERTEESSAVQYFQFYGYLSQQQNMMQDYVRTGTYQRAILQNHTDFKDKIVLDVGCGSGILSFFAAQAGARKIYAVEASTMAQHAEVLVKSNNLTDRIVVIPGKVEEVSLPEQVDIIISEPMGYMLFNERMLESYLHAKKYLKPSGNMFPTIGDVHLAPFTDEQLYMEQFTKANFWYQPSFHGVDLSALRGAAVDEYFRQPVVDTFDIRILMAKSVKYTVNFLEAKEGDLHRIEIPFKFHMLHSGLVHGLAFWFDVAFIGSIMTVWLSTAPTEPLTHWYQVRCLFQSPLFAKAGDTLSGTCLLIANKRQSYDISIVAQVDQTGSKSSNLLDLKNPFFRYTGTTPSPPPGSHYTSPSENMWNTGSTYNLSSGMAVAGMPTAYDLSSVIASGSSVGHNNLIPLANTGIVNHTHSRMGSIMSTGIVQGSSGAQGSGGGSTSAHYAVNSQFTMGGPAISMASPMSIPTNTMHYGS

[8] = target: T8, HeLa cell extract proteins (Homo sapiens, UniProt Q92616)
T8 construct: endogenous in cells; host or cells: HeLa cell extract
T8 sequence (Q92616 whole entry): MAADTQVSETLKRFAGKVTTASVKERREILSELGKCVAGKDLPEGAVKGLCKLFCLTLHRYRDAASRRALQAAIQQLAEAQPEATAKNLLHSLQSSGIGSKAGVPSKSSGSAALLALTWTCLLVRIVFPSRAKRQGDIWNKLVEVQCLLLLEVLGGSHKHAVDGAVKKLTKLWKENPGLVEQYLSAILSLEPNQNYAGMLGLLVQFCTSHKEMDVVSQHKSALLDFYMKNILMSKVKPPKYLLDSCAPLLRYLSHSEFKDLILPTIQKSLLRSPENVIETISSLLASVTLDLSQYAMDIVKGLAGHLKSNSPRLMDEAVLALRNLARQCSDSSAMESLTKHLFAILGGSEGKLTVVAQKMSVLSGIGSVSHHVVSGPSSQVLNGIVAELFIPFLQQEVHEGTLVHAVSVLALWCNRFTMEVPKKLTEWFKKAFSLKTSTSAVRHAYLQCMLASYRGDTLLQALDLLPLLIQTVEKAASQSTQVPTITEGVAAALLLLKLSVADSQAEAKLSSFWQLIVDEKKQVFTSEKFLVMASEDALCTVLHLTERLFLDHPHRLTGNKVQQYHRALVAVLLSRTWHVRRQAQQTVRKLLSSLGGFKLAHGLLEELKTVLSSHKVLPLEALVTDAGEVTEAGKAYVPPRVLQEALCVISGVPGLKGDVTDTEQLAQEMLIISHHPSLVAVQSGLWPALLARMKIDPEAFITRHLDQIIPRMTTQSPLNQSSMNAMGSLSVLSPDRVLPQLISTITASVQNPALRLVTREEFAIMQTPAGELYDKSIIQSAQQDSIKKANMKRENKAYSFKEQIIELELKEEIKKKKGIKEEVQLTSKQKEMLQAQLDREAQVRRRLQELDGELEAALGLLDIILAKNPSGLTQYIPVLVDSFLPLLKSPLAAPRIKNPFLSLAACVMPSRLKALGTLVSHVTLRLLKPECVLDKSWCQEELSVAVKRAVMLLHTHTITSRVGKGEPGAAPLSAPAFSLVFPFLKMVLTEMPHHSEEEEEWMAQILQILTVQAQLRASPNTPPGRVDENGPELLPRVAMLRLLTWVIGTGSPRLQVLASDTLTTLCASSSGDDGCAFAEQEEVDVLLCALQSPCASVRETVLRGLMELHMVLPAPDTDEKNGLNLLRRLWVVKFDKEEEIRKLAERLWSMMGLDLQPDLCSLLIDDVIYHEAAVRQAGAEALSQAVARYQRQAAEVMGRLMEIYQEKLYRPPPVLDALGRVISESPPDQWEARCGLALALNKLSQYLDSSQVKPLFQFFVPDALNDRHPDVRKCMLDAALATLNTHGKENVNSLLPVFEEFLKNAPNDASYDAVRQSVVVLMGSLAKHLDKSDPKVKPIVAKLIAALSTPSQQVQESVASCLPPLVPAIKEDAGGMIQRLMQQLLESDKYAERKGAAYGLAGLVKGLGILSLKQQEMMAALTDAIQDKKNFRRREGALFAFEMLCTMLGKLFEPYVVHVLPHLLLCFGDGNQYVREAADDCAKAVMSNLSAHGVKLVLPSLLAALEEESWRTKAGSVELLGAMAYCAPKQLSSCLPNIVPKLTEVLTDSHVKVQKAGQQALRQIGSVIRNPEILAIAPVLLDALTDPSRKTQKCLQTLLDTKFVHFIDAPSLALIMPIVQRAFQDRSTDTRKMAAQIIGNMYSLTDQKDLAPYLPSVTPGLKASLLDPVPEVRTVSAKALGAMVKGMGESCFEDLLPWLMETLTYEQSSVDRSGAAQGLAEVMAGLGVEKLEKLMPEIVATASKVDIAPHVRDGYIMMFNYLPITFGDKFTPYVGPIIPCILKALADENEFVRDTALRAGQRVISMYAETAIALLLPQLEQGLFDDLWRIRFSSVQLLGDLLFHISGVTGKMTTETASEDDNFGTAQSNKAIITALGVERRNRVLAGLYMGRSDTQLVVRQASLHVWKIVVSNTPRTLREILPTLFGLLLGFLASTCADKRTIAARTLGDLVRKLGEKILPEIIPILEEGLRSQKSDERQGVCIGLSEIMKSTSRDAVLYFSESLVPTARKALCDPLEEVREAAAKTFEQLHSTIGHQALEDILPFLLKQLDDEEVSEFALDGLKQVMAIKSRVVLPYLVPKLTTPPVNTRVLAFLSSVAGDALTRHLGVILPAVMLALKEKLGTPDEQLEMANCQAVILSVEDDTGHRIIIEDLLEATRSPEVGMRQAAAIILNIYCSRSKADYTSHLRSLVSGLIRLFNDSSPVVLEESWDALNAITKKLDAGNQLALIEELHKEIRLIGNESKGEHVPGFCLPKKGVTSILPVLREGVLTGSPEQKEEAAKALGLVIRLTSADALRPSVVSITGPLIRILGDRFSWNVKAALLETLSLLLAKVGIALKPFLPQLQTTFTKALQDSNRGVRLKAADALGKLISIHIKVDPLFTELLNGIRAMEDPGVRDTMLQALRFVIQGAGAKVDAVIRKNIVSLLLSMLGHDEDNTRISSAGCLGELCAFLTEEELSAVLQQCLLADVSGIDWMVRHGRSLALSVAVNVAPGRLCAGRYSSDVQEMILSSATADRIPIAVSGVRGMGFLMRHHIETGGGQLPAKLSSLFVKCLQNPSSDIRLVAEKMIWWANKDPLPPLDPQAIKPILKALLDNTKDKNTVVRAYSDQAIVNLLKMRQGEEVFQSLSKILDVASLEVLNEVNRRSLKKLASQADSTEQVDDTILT

[9] = target: T9, HeLa cell extract proteins (Homo sapiens, UniProt Q96CW5)
T9 construct: endogenous in cells; host or cells: HeLa cell extract
T9 sequence (Q96CW5 whole entry): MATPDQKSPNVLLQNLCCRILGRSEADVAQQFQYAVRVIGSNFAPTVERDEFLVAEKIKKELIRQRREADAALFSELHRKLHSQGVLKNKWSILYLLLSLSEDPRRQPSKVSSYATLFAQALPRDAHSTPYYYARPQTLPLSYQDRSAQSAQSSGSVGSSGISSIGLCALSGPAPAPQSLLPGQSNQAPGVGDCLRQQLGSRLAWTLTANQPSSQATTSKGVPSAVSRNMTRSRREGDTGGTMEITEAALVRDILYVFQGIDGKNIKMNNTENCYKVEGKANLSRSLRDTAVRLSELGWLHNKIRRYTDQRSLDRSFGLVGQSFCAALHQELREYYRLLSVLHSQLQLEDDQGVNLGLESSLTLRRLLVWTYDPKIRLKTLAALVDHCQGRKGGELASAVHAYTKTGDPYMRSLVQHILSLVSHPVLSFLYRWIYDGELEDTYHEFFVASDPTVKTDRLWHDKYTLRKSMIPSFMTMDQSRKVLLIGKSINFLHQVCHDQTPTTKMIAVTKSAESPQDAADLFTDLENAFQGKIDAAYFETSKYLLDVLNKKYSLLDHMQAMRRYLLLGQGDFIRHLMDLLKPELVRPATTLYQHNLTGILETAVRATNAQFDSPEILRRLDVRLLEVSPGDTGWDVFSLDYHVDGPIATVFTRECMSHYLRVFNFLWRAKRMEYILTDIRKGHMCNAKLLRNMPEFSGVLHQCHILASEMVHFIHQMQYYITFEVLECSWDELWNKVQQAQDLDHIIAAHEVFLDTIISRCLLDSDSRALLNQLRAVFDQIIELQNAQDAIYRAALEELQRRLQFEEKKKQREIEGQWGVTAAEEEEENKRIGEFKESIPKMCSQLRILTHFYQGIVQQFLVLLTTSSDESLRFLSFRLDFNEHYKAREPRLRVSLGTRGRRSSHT

[10] = HeLa, protein GPI (CDNA FLJ56429, HIGHLY SIMILAR TO GLUCOSE-6-PHOSPHATE ISOMERASE.)

| Structure (SMILES) | fold changes relative to vehicle control ([1]; HeLa, protein GPI) | fold changes relative to vehicle control ([2]; HeLa, protein MCM3) | fold changes relative to vehicle control ([3]; protein CTH, HeLa) | fold changes relative to vehicle control ([4]; protein NUDT1, HeLa) | fold changes relative to vehicle control ([5]; protein STAT3, HeLa) | fold changes relative to vehicle control ([6]; HeLa, protein GANAB) | fold changes relative to vehicle control ([7]; HeLa, protein CARM1) | fold changes relative to vehicle control ([8]; HeLa, captured protein GCN1L1) | fold changes relative to vehicle control ([9]; HeLa, protein TUBGCP3) | fold changes relative to vehicle control [1, 10] [fold] | fold changes relative to vehicle control ([2]; protein MCM3, HeLa) | fold changes relative to vehicle control ([4]; captured protein NUDT1, HeLa) | fold changes relative to vehicle control ([6]; protein GANAB, HeLa) | fold changes relative to vehicle control ([8]; HeLa, protein GCN1L1) | fold changes relative to vehicle control ([9]; captured protein TUBGCP3, HeLa) | further results |
| --- | --- | --- | --- | --- | --- | --- | --- | --- | --- | --- | --- | --- | --- | --- | --- | --- |
| Nc1nc2c(c(=O)[nH]1)N(C=O)C(CNc1ccc(C(=O)N[C@@H](CCC(=O)O)C(=O)O)cc1)CN2 (stereo partly drawn) [LEU, leucovorin] | 0.98 | 0.91 | 0.82 | 1.19 | 0.81 | 0.99 | 0.95 | 1.04 | 0.87 |  |  |  |  |  |  |  |
| Nc1nc2[nH]cc(CCc3ccc(C(=O)N[C@@H](CCC(=O)O)C(=O)O)cc3)c2c(=O)[nH]1 [PTX, pemetrexed] |  |  |  |  |  |  |  |  |  |  |  |  |  |  |  | fold changes relative to vehicle control [1]: 1.08; fold changes relative to vehicle control [2]: 1.03; fold changes relative to vehicle control [3]: 0.85; fold changes relative to vehicle control [4]: 0.36; fold changes relative to vehicle control [5]: 0.73; fold changes relative to vehicle control [6]: 1; fold changes relative to vehicle control [7]: 0.9; fold changes relative to vehicle control [8]: 1.02; fold changes relative to vehicle control [9]: 1.06 |
| CCCCCCOc1ccc(Cc2cnc(N)nc2N)cc1 [compound 1] |  |  | 0.86 |  | 0.87 |  | 1.02 |  |  | 1.37 | 0.94 | 1.02 | 1.08 | 1.07 | 0.94 |  |
| CCCCCCOc1cccc(Cc2cnc(N)nc2N)c1 [compound 2] |  |  | 1.43 |  | 1.1 |  | 0.98 |  |  | 2.26 | 1.38 | 0.11 | 1.28 | 1.14 | 1.05 |  |
| Nc1nc2cccc(-c3ccccc3)c2n1Cc1ccc(Cl)c(Cl)c1 [compound 3] |  |  | 0.91 |  | 1.15 |  | 0.95 |  |  | 0.93 | 1.29 | 0.62 | 0.94 | 1.16 | 1.02 |  |
| NCCOCCOCC(=O)Nc1nc2ncc(CNc3ccc(C(=O)NC(CCC(=O)O)C(=O)O)cc3)nc2c(=O)[nH]1 (stereo not drawn) [compound 6] | 1.23 | 1.01 | 0.95 | 1.16 | 0.91 | 1.1 | 0.89 | 1.15 | 1 |  |  |  |  |  |  |  |
| NCCCNc1ccc(C(=O)NC(CCC(=O)O)C(=O)O)cc1 (stereo not drawn) [compound 7] | 0.96 | 0.93 | 0.87 | 1.2 | 1 | 0.97 | 1 | 1.15 | 1.01 |  |  |  |  |  |  |  |
